This note sets out measurements from PubChem BioAssay AID296 (DTP/NCI, 2004).

SMILES strings stand for the structures. Where “and” joins values, the source holds several entries; their conditions need not be identical. Equal entries are not always repeated. Results filed as inconclusive are left out.

The subject of this assay is MX-1 breast xenograft, nude mice, tumor weight T/C. In words: NCI In Vivo Anticancer Drug Screen. Data for tumor model Human Mammary Carcinoma MX-1 Xenograft (intrarenal inoculation) in NU/NU Swiss (nude) mice. Particulars: endpoint: mean tumor weight change, higher = larger tumour. In short, it runs like this: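 Compound dosed to mice with transplantable tumor; vehicle group as control. Endpoint survival or tumour size, reported as T/C.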
Background: A xenograft is tissue or cells of one species grown in another, often human tumour cells in immunodeficient mice.

Where [1] appears, read: dose: 25.0 mg/kg/injection, schedule: Q01DX010 (sc), vehicle: saline with Tween-80.
The mark [2] stands for this setting: dose: 100.0 mg/kg/injection, schedule: Q01DX010 (sc), vehicle: saline with Tween-80.
[3] abbreviates: dose: 300.0 mg/kg/injection, schedule: Q04DX003 (sc), vehicle: saline.
Setting [4] is: dose: 16.0 mg/kg/injection, schedule: Q01DX010 (sc), vehicle: saline.
[5] abbreviates: dose: 150.0 mg/kg/injection, schedule: Q04DX003 (sc), vehicle: Klucel (hydroxypropylcellulose) (HPC).
Where [6] appears, read: dose: 300.0 mg/kg/injection, schedule: Q04DX003 (sc), vehicle: Klucel (hydroxypropylcellulose) (HPC).

As to `N#Cc1nc(C#N)c(Sc2ccccc2)c(Sc2ccccc2)c1Sc1ccccc1`, the T/C runs as follows: under setting [1], 57 % of control; under setting [2], 24 % of control; (dose: 200.0 mg/kg/injection, schedule: Q01DX010 (sc), vehicle: saline with Tween-80) 80 % of control.
Take `O=c1n(CC2CO2)c(=O)n(CC2CO2)c(=O)n1CC1CO1` (stereo unspecified): the T/C (dose: 25.0 mg/kg/injection, schedule: Q04DX003 (sc), vehicle: saline) was 26 % of control and the T/C (dose: 50.0 mg/kg/injection, schedule: Q04DX003 (sc), vehicle: saline) was 4 % of control.
As to `C(COCCOCC1CO1)OCCOCC1CO1` (stereo unspecified), the T/C by setting is: under setting [3], 64 % of control; (dose: 600.0 mg/kg/injection, schedule: Q04DX003 (sc), vehicle: saline) 29 % of control.
Take `CC1=C(C)C(=O)O[C@@H]([C@](C)(O)[C@]2(O)CC[C@@]3(O)[C@@H]4C[C@H]5O[C@]56[C@@H](O)C=CC(=O)[C@]6(C)[C@H]4CC[C@]23C)C1`: the T/C is 155 % of control under setting [4]; 95 % of control (dose: 32.0 mg/kg/injection, schedule: Q01DX010 (sc), vehicle: saline); 75 % of control (dose: 64.0 mg/kg/injection, schedule: Q01DX010 (sc), vehicle: saline).
As to `CC1/C=C/C=C/CC/C=C/C=C/C=C/C=C/C(OC2OC(C)C(O)C(N)C2O)CC2OC(CC(O)C(O)CCC(O)CC(O)CC(O)CC(=O)OC(C)C(C)C1O)CC(O)C2C(=O)O` (stereo unspecified), the T/C runs as follows: (dose: 150.0 mg/kg/injection, schedule: Q04DX003 (ip), vehicle: saline with Tween-80) 59 % of control; (dose: 300.0 mg/kg/injection, schedule: Q04DX003 (ip), vehicle: saline with Tween-80) 55 % of control.
Consider `NC(Cn1ccc(=O)c(O)c1)C(=O)O` (stereo unspecified), for which the T/C under setting [3] is 72 % of control; the T/C (dose: 1200.0 mg/kg/injection, schedule: Q04DX003 (sc), vehicle: saline) is 88 % of control; the T/C (dose: 2400.0 mg/kg/injection, schedule: Q04DX003 (sc), vehicle: saline) is 88 % of control.
On to `O=Cc1ccc([N+](=O)[O-])s1`, for which the T/C is 90 % of control under setting [1]; 89 % of control (dose: 50.0 mg/kg/injection, schedule: Q01DX010 (sc), vehicle: saline with Tween-80); 56 % of control under setting [2].
For the compound `CCCCCCCCNc1cc2c3c(c1)CCCN3CCC2`, the T/C was 110 % of control (dose: 3.0 mg/kg/injection, schedule: Q04DX003 (sc), vehicle: Klucel (hydroxypropylcellulose) (HPC)); 74 % of control (dose: 6.0 mg/kg/injection, schedule: Q04DX003 (sc), vehicle: Klucel (hydroxypropylcellulose) (HPC)); 108 % of control (dose: 12.0 mg/kg/injection, schedule: Q04DX003 (sc), vehicle: Klucel (hydroxypropylcellulose) (HPC)); 51 % of control (dose: 24.0 mg/kg/injection, schedule: Q04DX003 (sc), vehicle: Klucel (hydroxypropylcellulose) (HPC)).
`CCC1=C[C@H]2CN(CCc3c([nH]c4ccccc34)[C@@](C(=O)OC)(c3cc4c(cc3OC)N(C)[C@H]3[C@@](O)(C(=O)OC)[C@H](OC(C)=O)[C@]5(CC)C=CCN6CC[C@]43[C@@H]65)C2)C1`: the T/C is 108 % of control (dose: 3.0 mg/kg/injection, schedule: Q04DX003 (sc), vehicle: water); 84 % of control (dose: 6.0 mg/kg/injection, schedule: Q04DX003 (sc), vehicle: water); 56 % of control (dose: 12.0 mg/kg/injection, schedule: Q04DX003 (sc), vehicle: water).
On to `Nc1nc(=S)c2ncn(C3CC(O)C(CO)O3)c2[nH]1` (stereo unspecified), for which the T/C runs as follows: (dose: 0.94 mg/kg/injection, schedule: Q04DX003 (sc), vehicle: saline with Tween-80) 97 % of control; (dose: 1.88 mg/kg/injection, schedule: Q04DX003 (sc), vehicle: saline with Tween-80) 81 % of control; (dose: 3.75 mg/kg/injection, schedule: Q04DX003 (sc), vehicle: saline with Tween-80) 97 % of control; (dose: 7.5 mg/kg/injection, schedule: Q04DX003 (sc), vehicle: saline with Tween-80) 87 % of control; (dose: 50.0 mg/kg/injection, schedule: Q01DX010 (sc), vehicle: Klucel (hydroxypropylcellulose) (HPC)) 64 % of control; (dose: 100.0 mg/kg/injection, schedule: Q01DX010 (sc), vehicle: Klucel (hydroxypropylcellulose) (HPC)) 122 % of control.
`COC1CC2C=C(C)/C=C/C=C/C(=O)NC(c3ccccc3)C/C=C/CCC(O)CC(=O)C2=C1O` (stereo unspecified): the T/C is, setting by setting: (dose: 75.0 mg/kg/injection, schedule: Q04DX003 (sc), vehicle: Klucel (hydroxypropylcellulose) (HPC)) 41 % of control; under setting [5], 71 % of control; under setting [6], 50 % of control.
On to `O=C1C(NCC(O)CO)=C(N2CC2)C(=O)C(NCC(O)CO)=C1N1CC1` (stereo unspecified), for which the T/C is, setting by setting: (dose: 4.0 mg/kg/injection, schedule: Q04DX003 (ip), vehicle: saline) 76 % of control; (dose: 8.0 mg/kg/injection, schedule: Q04DX003 (ip), vehicle: saline) 69 % of control; (dose: 16.0 mg/kg/injection, schedule: Q04DX003 (ip), vehicle: saline) 46 % of control.
Take `Cc1ccccc1N(CC1CO1)CC1CO1` (stereo unspecified): the T/C was 54 % of control (dose: 50.0 mg/kg/injection, schedule: Q01DX010 (sc), vehicle: saline); 91 % of control (dose: 100.0 mg/kg/injection, schedule: Q01DX010 (sc), vehicle: saline); 89 % of control (dose: 200.0 mg/kg/injection, schedule: Q01DX010 (sc), vehicle: saline); 56 % of control (dose: 400.0 mg/kg/injection, schedule: Q01DX010 (sc), vehicle: saline); 111 % of control (dose: 800.0 mg/kg/injection, schedule: Q01DX010 (sc), vehicle: suspension in saline).
Take `CC(=O)OCC1OC([S-])C(OC(C)=O)C(OC(C)=O)C1OC(C)=O.CC[PH+](CC)CC.CC[PH+](CC)CC.[Au].[Au]` (stereo unspecified): the T/C by setting is: (dose: 0.32 mg/kg/injection, schedule: Q04DX003 (sc), vehicle: Klucel (hydroxypropylcellulose) (HPC)) 88 % of control; (dose: 0.63 mg/kg/injection, schedule: Q04DX003 (sc), vehicle: Klucel (hydroxypropylcellulose) (HPC)) 112 % of control; (dose: 1.25 mg/kg/injection, schedule: Q04DX003 (sc), vehicle: Klucel (hydroxypropylcellulose) (HPC)) 100 % of control; (dose: 2.5 mg/kg/injection, schedule: Q04DX003 (sc), vehicle: Klucel (hydroxypropylcellulose) (HPC)) 87 % of control.
As for `O=C(O)C1(NO)CCCCC1`, the T/C by setting is: (dose: 200.0 mg/kg/injection, schedule: Q04DX003 (sc), vehicle: Klucel (hydroxypropylcellulose) (HPC)) 110 % of control; (dose: 400.0 mg/kg/injection, schedule: Q04DX003 (sc), vehicle: Klucel (hydroxypropylcellulose) (HPC)) 100 % of control; (dose: 800.0 mg/kg/injection, schedule: Q04DX003 (sc), vehicle: Klucel (hydroxypropylcellulose) (HPC)) 123 % of control; (dose: 1600.0 mg/kg/injection, schedule: Q04DX003 (sc), vehicle: Klucel (hydroxypropylcellulose) (HPC)) 64 % of control.
On to `C1OC1CN1CCN(CC2CO2)CC1` (stereo unspecified), for which the T/C was 289 % of control (dose: 8.0 mg/kg/injection, schedule: Q01DX010 (sc), vehicle: suspension in saline); 8 % of control and 33 % of control under setting [4]; 98 % of control (dose: 16.0 mg/kg/injection, schedule: Q01DX010 (sc), vehicle: suspension in saline).
On to `Cc1ccc(NCCN(C)C)c2c(=O)c3cc(O)ccc3sc12`, for which the T/C under setting [5] was 54 % of control; the T/C under setting [6] was 62 % of control; the T/C (dose: 600.0 mg/kg/injection, schedule: Q04DX003 (sc), vehicle: Klucel (hydroxypropylcellulose) (HPC)) was 120 % of control; the T/C (dose: 1200.0 mg/kg/injection, schedule: Q04DX003 (sc), vehicle: Klucel (hydroxypropylcellulose) (HPC)) is 75 % of control.
Take `CCOC(=O)N(C)N=NC`: the T/C reads like this: (dose: 15.0 mg/kg/injection, schedule: Q04DX003 (ip), vehicle: saline) 97 % of control; (dose: 30.0 mg/kg/injection, schedule: Q04DX003 (ip), vehicle: saline) 95 % of control; (dose: 60.0 mg/kg/injection, schedule: Q04DX003 (ip), vehicle: saline) 71 % of control; (dose: 120.0 mg/kg/injection, schedule: Q04DX003 (ip), vehicle: saline) 52 % of control.
